{"source": "patent US7750181B2", "about": "“Antiproliferative agents” (EPX Research Limited, priority 2002, dated 2010)", "key": {"[1]": {"system": "MAC15 tumour, murine colon cancer", "test": "Tumour growth inhibition, MAC15 tumour transplanted s.c.", "format": "in vivo, NMRI mice", "conditions": "intraperitoneal; for Tumour weight: individual animals", "protocol": "(§1) Pure strain NMRI mice (age 6-8 weeks) from our inbred colony were used for transplanting MAC (murine colon cancer) tumours, M5076 reticulum cell sarcoma (ovarian) were transplanted in BDF1 mice purchased from Harlan, Bicester, U.K. Animals were fed on RM3E diet (Lillco-England) and water ad libitum.\nThe tumour is routinely passaged as an ascites. Approximately 2×10^5 cells were transplanted subcutaneously in saline in a volume of 0.2 ml. Mice were randomised in groups of 5-7 animals per group. Untreated or vehicle controls were included. Treatment commenced two days after transplant. Body weight was recorded daily. The effects of chemotherapy were assessed between 7-9 days after transplant. Mice were killed and the effects measured by the differences in tumour weights and expressed as: % T/C, i.e. […] Body weight changes were recorded in order to assess toxicity."}, "[2]": {"system": "H460 non-small cell lung cancer human xenograft", "test": "Antitumour test, H460 NSCLC human xenograft", "format": "in vivo, Nu nude mice", "conditions": "500 mg/kg, i.p. days 0-4", "protocol": "(§2) Fragments of the non-small cell lung cancer, H460, and DLD-1 colon cancer human xenografts were transplanted sub-cutaneously in both flanks of 14 female Nu nude mice from an inbred colony (B7K Universal, Hull, UK). Mice received CRM diet (SDS, WItham, UK) and water ad libitum. All experiments were carried out under a project license issued by the UK Home Office, and UKCCCR guidelines were followed throughout.\n(§3) Therapy commenced once tumours had grown to a sufficient size to be measured accurately (minimum 4 mm×4 mm), which was 10 days for H460 and 19 days for DLD-1. 10 tumours grew sufficiently to use in 7 mice for both the test and untreated groups.\nIn the case of H460, the compound of Example 4 was administered at a concentration of 500 mg/kg body weight/day, intraperitoneally (i.p.), daily for 5 days (designated days 0-4). Animals were monitored daily for any toxicity effects, and tumours were measured, and weights recorded daily over the period of therapy and then on day 7 (untreated and test groups), and day 8 (test group). On day 7 for the untreated group, and day 8 for the test group, the largest tumour diameter was greater than the maximum permitted 17 mm, and subjects were then euthenised by UK Home Office Schedule 1 methods.\n(§4) In both cases tumour volumes were assessed by caliper measurements of 2 perpendicular diameters and the volumes estimated using the following equation: Volumes−(a^2×b)/2, where a is the smaller, and b the larger diameter of the two. The effects of the therapy were determined from the difference in tumour volume-doubling time between treated and control groups, and the significance of any tumour growth delay determined using the Mann-Whitney U Test."}, "[3]": {"system": "DLD-1 colon cancer human xenograft", "test": "Antitumour test, DLD-1 colon cancer human xenograft", "format": "in vivo, Nu nude mice", "conditions": "500 mg/kg, i.p. days 0-4", "protocol": "as §2, §3\n[…], and assessing tumour growth compared to a control untreated group until the tumours have reached the maximum permitted size (day 16 control and tested group).\nas §4"}, "[4]": {"system": "MAC 13 tumour, murine colon cancer", "test": "Tumour growth inhibition, MAC 13 tumour transplanted s.c.", "format": "in vivo, NMRI mice", "conditions": "400 mg/kg body weight, intraperitoneal, days of treatment 1-5", "excerpt": "as §1\n(§5) Approximately 2×2 mm of MAC13 tumour fragments were transplanted subcutaneously in the inguinal region via a trocar while the M5076 was homogenised and 1×10^6 cells transplanted intramuscularly in the inguinal region. Tumour bearing mice were randomised in groups of 5-7 animals per group. Treatment commenced one day after transplant for M5076 and two days for MAC13. Untreated or vehicle controls were included. Daily weights were recorded. Chemotherapy effects were assessed on day 14 or thereabouts depending on the tumour sizes and condition of the animals. Mice were killed and the effects of the chemotherapy were assessed by the differences in tumour weights and expressed as: % T/C, i.e. inhibition=100-Treated weight/Control weight×100% Body weight changes were recorded in order to assess toxicity. MAC15A"}, "[5]": {"system": "M5076 tumour, ovarian cancer (reticulum cell sarcoma)", "test": "Tumour growth inhibition, M5076 tumour transplanted i.m.", "format": "in vivo, BDF1 mice", "conditions": "400 mg/kg body weight, intraperitoneal, days of treatment 1-11", "excerpt": "as §1, §5"}, "[6]": {"conditions": "RTV2 = relative tumour volume doubling"}, "[7]": {"conditions": "300 mg/kg body weight, days of treatment 1-5"}, "[8]": {"conditions": "400 mg/kg body weight, days of treatment 1-5"}}, "note": "Where “and” joins values, the source holds several entries; their conditions need not be identical. Equal values may be shown once."}
{"smiles": "CN1C(=O)C(Cl)=C(Cl)C(=O)C1O", "note": "(centres unmarked) [Example 4, 3,4-dichloro-6-hydroxy-1-methyl-2,5-dioxo-1.6-dihydropyridine]", "values": [{"measurement": "% Tumour growth inhibition", "setting": "[1]; 500 mg/kg body weight, day 1-5", "value": 86, "unit": "%"}, {"measurement": "Mean tumour weight", "setting": "[1]; 500 mg/kg body weight, day 1-5", "value": 0.056, "unit": "g"}, {"measurement": "Tumour weight", "setting": "[1]; 500 mg/kg body weight, day 1-5, 500 mg/kg", "value": "0.076 g and 0.033 g and 0.0 g (3×) and 0.090 g and 0.060 g and 0.134 g and 0.114 g"}, {"measurement": "Maximum % weight loss", "setting": "[2]", "value": 6.9, "unit": "%"}, {"measurement": "Median time RTV2", "setting": "[2]", "value": 6.4, "unit": "days"}, {"measurement": "Mean time to RTV2", "setting": "[2]; [6]", "value": 6.2, "unit": "days"}, {"measurement": "Growth delay", "setting": "[2]; versus untreated controls", "value": 3.9, "unit": "days"}, {"measurement": "Maximum % weight loss", "setting": "[3]", "value": 4.3, "unit": "%"}, {"measurement": "Median time RTV2", "setting": "[3]", "value": 9.8, "unit": "days"}, {"measurement": "Mean time to RTV2", "setting": "[3]; [6]", "value": 9.9, "unit": "days"}, {"measurement": "Growth delay", "setting": "[3]; versus untreated controls", "value": 6.7, "unit": "days"}]}
{"smiles": "CN(C=O)C(=O)/C(Cl)=C(/Cl)C(=O)O", "note": "[Example 3, (Z)-2,3-dichloro-4-[N-formyl-N-methylamino]-4-oxo-but-2-enoic acid]", "values": [{"measurement": "% Tumour growth inhibition", "setting": "[4]", "value": 92, "unit": "%"}, {"measurement": "Mean tumour weight", "setting": "[4]", "value": 0.031, "unit": "g"}, {"measurement": "Tumour weight", "setting": "[4]; individual animals, 400 mg/kg", "value": "0.053 g and 0.045 g and 0.030 g and 0.023 g and 0.0 g and 0.036 g"}, {"measurement": "% Tumour growth inhibition", "setting": "[5]", "value": 97, "unit": "%"}, {"measurement": "Mean tumour weight", "setting": "[5]", "value": 0.008, "unit": "g"}, {"measurement": "Tumour weight", "setting": "[5]; individual animals, 400 mg/kg", "value": "0 g (5×) and 0.052 g"}, {"measurement": "% Tumour growth inhibition", "setting": "[1]; [7]", "value": 68, "unit": "%"}, {"measurement": "Mean tumour weight", "setting": "[1]; [7]", "value": 0.195, "unit": "g"}, {"measurement": "% Tumour growth inhibition", "setting": "[1]; [8]", "value": 81, "unit": "%"}, {"measurement": "Mean tumour weight", "setting": "[1]; [8]", "value": 0.117, "unit": "g"}, {"measurement": "Tumour weight", "setting": "[1]; 300 mg/kg body weight, days of treatment 1-5, 300 mg/kg", "value": "0.194 g and 0.201 g and 0.190 g and 0.176 g and 0.214 g"}, {"measurement": "Tumour weight", "setting": "[1]; 400 mg/kg body weight, days of treatment 1-5, 400 mg/kg", "value": "0.074 g and 0.094 g and 0.190 g and 0.096 g and 0.132 g"}]}
